Reference: patent US4153692A, “Acylated imidazolyl-O,N-acetals, their pharmaceutically acceptable salts and metal complexes” (Bayer Aktiengesellschaft, priority 1976, dated 1979)
In brackets after ≈: the same amount, converted by molar mass. Values belong to the compound of their own block, whether it stands above or below them.

Assays:
[1] = tested on: Trichophyton mentagrophytes; assay: Antimycotic in vitro activity (series dilution test, MIC); assay type: cell-based; details: Sabouraud's milieu d'epreuve, 28° C., 24 to 96 hours, 5 × 10^4 germs/ml, read-out: MIC values in γ/ml of nutrient medium with Trichophyton mentagrophytes
Protocol: (§1) Antimycotic in vitro activity Description of the experiment The in vitro tests were carried out in a series dilution test using germ inocula with an average of 5 × 10^4 germs/ml of substrate. The nutrient medium used was a) for dermatophytes and molds: Sabouraud's milieu d'epreuve and b) for yeasts: meat extract/glucose broth. The incubation temperature was 28° C. and the incubation time was 24 to 96 hours.

Candida albicans = assay: as above; assay type: cell-based; details: meat extract/glucose broth, 28° C., 24 to 96 hours, 5 × 10^4 germs/ml, read-out: MIC values in γ/ml of nutrient medium with Candida albicans
Protocol: as §1

Penicillium commune = assay: as above; assay type: cell-based; details: Sabouraud's milieu d'epreuve, 28° C., 24 to 96 hours, 5 × 10^4 germs/ml, read-out: MIC values in γ/ml of nutrient medium with Penicillium commune
Protocol: as §1

Microsporum felinum = assay: as above; assay type: cell-based; details: Sabouraud's milieu d'epreuve, 28° C., 24 to 96 hours, 5 × 10^4 germs/ml, read-out: MIC values in γ/ml of nutrient medium with Microsporum felinum
Protocol: as §1

Aspergillus niger = assay: as above; assay type: cell-based; details: Sabouraud's milieu d'epreuve, 28° C., 24 to 96 hours, 5 × 10^4 germs/ml, read-out: MIC values in γ/ml of nutrient medium with Aspergillus niger
Protocol: as §1

Candida cells = assay: Antimycotic in vivo activity on candidosis in mice; design: species or system mice of the SPF-CF1 type; details: mice infected i.v. with Candida; 100 mg/kg orally one hour before and seven hours after infection; untreated survival about 5%
Protocol: antimycotic in vivo activity on candidosis in mice Description of the experiment Mice of the SPF-CF1 type were infected intravenously with 1-2 × 10^6 logarithmically-growing Candida cells, which were suspended in physiological sodium chloride solution. One hour before and seven hours after the infection the animals were treated orally with, in each case, 100 mg of the formulations per kg of body weight. Untreated animals died of the infection 3 to 6 days after infection. The survival rate on the 6th day after infection was about 5% in the case of the untreated control animals

Structure (SMILES): CC(C)(C)c1ccc(OC(C(O)C(C)(C)C)n2ccnc2)cc1 (stereo not shown)
MIC [1]: 32 µg/mL (≈ 101 µM) | MIC (Candida albicans): 64 µg/mL (≈ 202 µM) | MIC (Penicillium commune): > 64 µg/mL

Structure (SMILES): CC(=O)OC(C(Oc1ccccc1)n1ccnc1)C(C)(C)C (stereo not shown)
Action (survivors on the 6th day after infection) (Candida cells): ++ (weak action = ≥ 40% survivors on the 6th day after infection)

Structure (SMILES): CC(=O)OC(C(Oc1ccc(F)cc1)n1ccnc1)C(C)(C)C (stereo not shown)
Action (survivors on the 6th day after infection) (Candida cells): +++ (action = ≥ 60% survivors on the 6th day after infection)

Structure (SMILES): CC(C)(C)C(O)C(Oc1cccc(Cl)c1)n1ccnc1 (stereo not shown) [drawing 4]
MIC [1]: 64 µg/mL (≈ 217 µM) | MIC (Candida albicans): 32 µg/mL (≈ 109 µM) | MIC (Penicillium commune): > 64 µg/mL

Structure (SMILES): CC(C)(C)C(O)C(Oc1cccc(Cl)c1)n1ccnc1 (stereo not shown) [drawing 13]
Action (survivors on the 6th day after infection) (Candida cells): + (trace action = < 40% survivors on 6th day after infection)

Structure (SMILES): CC(=O)OC(C(Oc1ccc(Cl)cc1)n1ccnc1)C(C)(C)C (stereo not shown) [drawing 15]
Action (survivors on the 6th day after infection) (Candida cells): ++++ (good action = ≥ 80% survivors on the 6th day after infectio)

Structure (SMILES): CC(=O)OC(C(Oc1ccc(Br)cc1)n1ccnc1)C(C)(C)C (stereo not shown) [drawing 16]
Action (survivors on the 6th day after infection) (Candida cells): ++ (weak action = ≥ 40% survivors on the 6th day after infection)

Structure (SMILES): CC(=O)OC(C(Oc1ccc(-c2ccc(Cl)cc2)cc1)n1ccnc1)C(C)(C)C (stereo not shown) [drawing 18]
Action (survivors on the 6th day after infection) (Candida cells): ++++ (good action = ≥ 80% survivors on the 6th day after infectio)

Structure (SMILES): CC(=O)OC(C(Oc1ccc(I)cc1)n1ccnc1)C(C)(C)C (stereo not shown) [drawing 20]
Action (survivors on the 6th day after infection) (Candida cells): + (trace action = < 40% survivors on 6th day after infection)

More lines, now with the values ahead:

MIC [1]: 32 µg/mL (≈ 123 µM) | MIC (Candida albicans): 32 µg/mL (≈ 123 µM) | MIC (Penicillium commune): > 64 µg/mL | MIC (Microsporum felinum): > 64 µg/mL | MIC (Aspergillus niger): > 64 µg/mL
Structure (SMILES): CC(C)(C)C(O)C(Oc1ccccc1)n1ccnc1 (stereo not shown)

MIC [1]: < 1 µg/mL | MIC (Candida albicans): 64 µg/mL (≈ 169 µM) | MIC (Penicillium commune): 8 µg/mL (≈ 21.1 µM) | MIC (Microsporum felinum): 8 µg/mL (≈ 21.1 µM) | MIC (Aspergillus niger): < 1 µg/mL
Structure (SMILES): CC(=O)OC(C(Oc1ccc(-c2ccccc2)cc1)n1ccnc1)C(C)(C)C (stereo not shown)

MIC [1]: 8 µg/mL (≈ 20.8 µM) | MIC (Candida albicans): 64 µg/mL (≈ 166 µM) | MIC (Penicillium commune): 32 µg/mL (≈ 83.2 µM)
Structure (SMILES): CC(=O)OC(C(Oc1ccc(C2CCCCC2)cc1)n1ccnc1)C(C)(C)C (stereo not shown)

MIC [1]: 4 µg/mL (≈ 11.9 µM) | MIC (Candida albicans): 32 µg/mL (≈ 95 µM) | MIC (Penicillium commune): 32 µg/mL (≈ 95 µM) | MIC (Microsporum felinum): 32 µg/mL (≈ 95 µM) | MIC (Aspergillus niger): 64 µg/mL (≈ 190 µM)
Structure (SMILES): CC(=O)OC(C(Oc1ccc(Cl)cc1)n1ccnc1)C(C)(C)C (stereo not shown) [drawing 7]

MIC [1]: 4 µg/mL (≈ 10.5 µM) | MIC (Candida albicans): 64 µg/mL (≈ 168 µM) | MIC (Penicillium commune): 32 µg/mL (≈ 83.9 µM) | MIC (Microsporum felinum): 32 µg/mL (≈ 83.9 µM) | MIC (Aspergillus niger): 64 µg/mL (≈ 168 µM)
Structure (SMILES): CC(=O)OC(C(Oc1ccc(Br)cc1)n1ccnc1)C(C)(C)C (stereo not shown) [drawing 9]

MIC [1]: 4 µg/mL (≈ 9.34 µM) | MIC (Candida albicans): 32 µg/mL (≈ 74.7 µM) | MIC (Penicillium commune): 64 µg/mL (≈ 149 µM) | MIC (Microsporum felinum): 32 µg/mL (≈ 74.7 µM) | MIC (Aspergillus niger): 64 µg/mL (≈ 149 µM)
Structure (SMILES): CC(=O)OC(C(Oc1ccc(I)cc1)n1ccnc1)C(C)(C)C (stereo not shown) [drawing 10]

MIC [1]: < 1 µg/mL | MIC (Candida albicans): 32 µg/mL (≈ 77.5 µM) | MIC (Penicillium commune): 64 µg/mL (≈ 155 µM) | MIC (Microsporum felinum): 32 µg/mL (≈ 77.5 µM) | MIC (Aspergillus niger): 64 µg/mL (≈ 155 µM)
Structure (SMILES): CC(=O)OC(C(Oc1ccc(-c2ccc(Cl)cc2)cc1)n1ccnc1)C(C)(C)C (stereo not shown) [drawing 11]
